These results are taken from ChEMBL document CHEMBL4196229, “GPR40 Receptor Agonists for the Treatment of Type 2 Diabetes and Related Diseases” (ACS Med Chem Lett, 2018).

The assay deals with Free fatty acid receptor 1 (Homo sapiens, UniProt O14842). The assay is described as follows: Agonist activity at human GPR40 expressed in human 1321N1 cells assessed as IP1 accumulation after 1 hr by HTRF assay. The class given is functional, cell-based. On the technique in general: Time-resolved FRET reads energy transfer from a long-lived donor to a nearby acceptor.
Chain of Free fatty acid receptor 1 (O14842 whole entry): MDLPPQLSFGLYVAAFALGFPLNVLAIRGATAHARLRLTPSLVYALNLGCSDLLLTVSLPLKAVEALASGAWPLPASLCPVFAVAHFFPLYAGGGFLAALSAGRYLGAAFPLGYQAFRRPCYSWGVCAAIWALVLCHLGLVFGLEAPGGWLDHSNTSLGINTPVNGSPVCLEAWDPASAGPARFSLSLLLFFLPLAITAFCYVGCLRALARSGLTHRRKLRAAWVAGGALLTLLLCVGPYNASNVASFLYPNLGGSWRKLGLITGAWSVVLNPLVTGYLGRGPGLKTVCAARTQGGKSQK
As a reminder, the EC50 is the concentration needed to bring the measured effect to its halfway point. `Cc1cc(OCC2CCOC2)cc(C)c1-c1ccc(F)c2c1CC[C@H]2Nc1ccc([C@H]2C[C@@H]2C(=O)O)nc1` (stereo not given in full): the EC50 was 7 nM.
Next, `Cc1cc(OCCC(C)(C)O)cc(C)c1-c1ccc(F)c2c1CC[C@H]2Nc1ccc([C@H]2C[C@@H]2C(=O)O)nc1`: 11 nM; `CNC(=O)c1cc(C)c(-c2ccc(F)c3c2CC[C@H]3Nc2ccc([C@H]3C[C@@H]3C(=O)O)nc2)c(C)c1`: 148 nM; `Cc1cc(-c2nnn(CC(C)(C)O)n2)cc(C)c1-c1ccc(F)c2c1CC[C@H]2Nc1ccc([C@H]2C[C@@H]2C(=O)O)nc1`: 2 nM.
Under `Cc1cc(-c2cccc(=O)n2C)cc(C)c1-c1ccc(F)c2c1CC[C@H]2Nc1ccc([C@H]2C[C@@H]2C(=O)O)nc1` stands 4 nM.
